ChEMBL document CHEMBL1201862, “PubChem BioAssay data set” (2004)
Calls of active or inactive are those of the source.

Legend:
[1] = molecular target: T1, Endoribonuclease toxin MazF (Escherichia coli K-12, UniProt P0AE70); assay: MazF endoribonuclease activators, SAR follow-up, biochemical, fluorescence, single-stranded RNA substrate (AID 588603); type: functional
T1 sequence (P0AE70 whole entry): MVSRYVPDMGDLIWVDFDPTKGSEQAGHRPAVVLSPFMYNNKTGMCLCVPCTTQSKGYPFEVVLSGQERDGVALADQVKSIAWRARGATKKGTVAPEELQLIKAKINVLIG

[2] = molecular target: T1, Endoribonuclease toxin MazF; assay: MazF toxin RNase activators, dose response, biochemical, fluorescence, single-stranded RNA substrate, uHTS hits (AID 588481); type: functional
MEF = assay: SAR analysis of small molecule cytotoxicity of MazEF TA System activators in embryonic fibroblast (MEF) cells. [Related pubchem assays (depositor defined):AID504720, AID504743]; type: functional; conditions: Mus musculus
[3] = molecular target: T1, Endoribonuclease toxin MazF; assay: SAR analysis of small molecule activators of the MazEF TA System via a fluorescence-based single-stranded RNase assay counterscreen. [Related pubchem assays (depositor defined):AID504720, AID504743]; type: functional
[4] = molecular target: T1, Endoribonuclease toxin MazF; assay: fluorescent RNA oligo signal without MazF, dose response, counter-screen for MazEF activator project, biochemical, fluorescence, single-stranded RNase substrate (AID 588502); type: functional
[5] = molecular target: Beta-2 adrenergic receptor (Homo sapiens, UniProt P07550); assay: beta2AR agonists driving receptor internalization, dose response, cell-based, FAP fluorogen, flow cytometry, cherry pick 1 (AID 588763); type: functional
Chain of Beta-2 adrenergic receptor (P07550 whole entry): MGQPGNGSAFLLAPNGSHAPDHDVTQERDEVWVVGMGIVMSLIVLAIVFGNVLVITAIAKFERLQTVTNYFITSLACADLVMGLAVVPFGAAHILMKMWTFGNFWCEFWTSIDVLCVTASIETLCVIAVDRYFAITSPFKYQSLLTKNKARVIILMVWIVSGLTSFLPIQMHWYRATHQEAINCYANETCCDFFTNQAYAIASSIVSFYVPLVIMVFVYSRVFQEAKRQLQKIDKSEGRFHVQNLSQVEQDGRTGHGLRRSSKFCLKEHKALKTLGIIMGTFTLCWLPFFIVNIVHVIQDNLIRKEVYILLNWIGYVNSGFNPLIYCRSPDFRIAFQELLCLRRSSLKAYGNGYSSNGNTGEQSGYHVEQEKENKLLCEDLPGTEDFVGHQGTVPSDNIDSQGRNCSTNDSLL

BJ [6] = assay: cytotoxicity toward BJ-TERT fibroblasts, dose response, cell-based, RAS-independent, luminescence (AID 1933); type: functional; conditions: Homo sapiens
BJ [7] = assay: cells; type: functional, cell-based; conditions: Homo sapiens
BJ [8] = assay: cytotoxicity toward BJ-TERT-LT-ST fibroblasts, dose response, cell-based, RAS-independent, luminescence (AID 1935); type: functional; conditions: Homo sapiens;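 also: BJ fibroblasts immortalized with TERT plus LT and ST oncogenes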
[9] = cytotoxicity toward DRD oncogenic fibroblasts, dose response, cell-based, non-viral oncogenic, luminescence (AID 1934); type: functional; conditions: Homo sapiens
Cytochrome P450 2C19 = Cytochrome P450 2C19 (Homo sapiens, UniProt P33261); assay: Cytochrome panel assay with activity outcomes. Panel member name: p450-cyp2c19 Compounds with AC50 equal or less than 10 uM are considered active; type: functional; conditions: read-out: AC50
Chain of Cytochrome P450 2C19 (P33261 whole entry): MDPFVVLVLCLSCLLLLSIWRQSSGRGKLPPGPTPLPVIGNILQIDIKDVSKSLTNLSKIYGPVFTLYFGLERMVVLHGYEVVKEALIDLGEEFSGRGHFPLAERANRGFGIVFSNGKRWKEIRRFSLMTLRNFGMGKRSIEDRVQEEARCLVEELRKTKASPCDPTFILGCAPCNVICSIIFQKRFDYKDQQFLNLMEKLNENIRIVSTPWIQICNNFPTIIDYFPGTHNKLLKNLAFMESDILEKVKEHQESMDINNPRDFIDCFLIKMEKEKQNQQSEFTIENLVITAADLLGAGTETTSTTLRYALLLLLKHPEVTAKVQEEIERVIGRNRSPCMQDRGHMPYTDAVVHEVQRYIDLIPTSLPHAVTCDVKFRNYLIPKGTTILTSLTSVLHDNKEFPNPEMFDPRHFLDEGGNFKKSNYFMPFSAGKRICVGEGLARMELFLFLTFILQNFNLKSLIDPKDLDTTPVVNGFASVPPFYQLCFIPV

BJ [10] = assay: cytotoxicity toward Ras-transformed BJeLR fibroblasts, dose response, cell-based, alamar blue fluorescence, cherrypicked samples (AID 2631); type: functional; conditions: Homo sapiens;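 also: confirmatory dose-response assay in RAS-dependent BJ fibroblasts engineered with TERT, LT and ST, with cytotoxicity read by fluorescence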
INS1 [11] = assay: beta cell apoptosis inhibitors, cytokine rescue, dose response, luminescence, retest (AID 449756); type: functional, cell-based; conditions: Rattus norvegicus;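 also: cell death triggered by IL-1 beta plus TNF-alpha plus IFN-gamma mixture; protective hits raise ATP signal compared with cytokine alone wells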
Cytochrome P450 2C9 = Cytochrome P450 2C9 (Homo sapiens, UniProt P11712)
Chain of Cytochrome P450 2C9 (P11712 whole entry): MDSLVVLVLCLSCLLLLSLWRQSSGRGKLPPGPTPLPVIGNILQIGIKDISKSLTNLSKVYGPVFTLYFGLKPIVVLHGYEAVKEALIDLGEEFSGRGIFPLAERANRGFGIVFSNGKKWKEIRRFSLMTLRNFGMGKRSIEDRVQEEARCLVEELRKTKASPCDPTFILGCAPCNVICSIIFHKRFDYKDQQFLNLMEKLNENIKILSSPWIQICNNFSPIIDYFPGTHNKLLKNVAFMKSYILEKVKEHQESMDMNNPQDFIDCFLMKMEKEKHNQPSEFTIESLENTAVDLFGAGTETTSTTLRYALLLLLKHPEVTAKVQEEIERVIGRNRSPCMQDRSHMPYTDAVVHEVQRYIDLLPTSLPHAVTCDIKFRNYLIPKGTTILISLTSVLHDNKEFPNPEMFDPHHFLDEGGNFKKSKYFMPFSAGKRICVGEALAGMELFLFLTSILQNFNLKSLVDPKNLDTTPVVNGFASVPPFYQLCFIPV

[12] = THP-1 cell cytotoxicity, cytotoxicity control, set 4 (AID 504911); type: functional; conditions: Mycobacterium tuberculosis
[13] = THP-1 cell cytotoxicity, dose response, cytotoxicity control, set 3 (AID 504852); type: functional; conditions: Mycobacterium tuberculosis
[14] = Vero cell cytotoxicity, dose response, cytotoxicity control for M. tuberculosis growth inhibitor project, Vero cells, purified and synthesized compounds, set 4 (AID 504854); type: functional; conditions: Mycobacterium tuberculosis
[15] = molecular target: T2, High affinity choline transporter 1 (Homo sapiens, UniProt Q9GZV3); assay: CHT activators, dose response, cell-based, 10-point CRC, membrane potential dye (AID 602376); type: functional
T2 sequence (Q9GZV3 whole entry): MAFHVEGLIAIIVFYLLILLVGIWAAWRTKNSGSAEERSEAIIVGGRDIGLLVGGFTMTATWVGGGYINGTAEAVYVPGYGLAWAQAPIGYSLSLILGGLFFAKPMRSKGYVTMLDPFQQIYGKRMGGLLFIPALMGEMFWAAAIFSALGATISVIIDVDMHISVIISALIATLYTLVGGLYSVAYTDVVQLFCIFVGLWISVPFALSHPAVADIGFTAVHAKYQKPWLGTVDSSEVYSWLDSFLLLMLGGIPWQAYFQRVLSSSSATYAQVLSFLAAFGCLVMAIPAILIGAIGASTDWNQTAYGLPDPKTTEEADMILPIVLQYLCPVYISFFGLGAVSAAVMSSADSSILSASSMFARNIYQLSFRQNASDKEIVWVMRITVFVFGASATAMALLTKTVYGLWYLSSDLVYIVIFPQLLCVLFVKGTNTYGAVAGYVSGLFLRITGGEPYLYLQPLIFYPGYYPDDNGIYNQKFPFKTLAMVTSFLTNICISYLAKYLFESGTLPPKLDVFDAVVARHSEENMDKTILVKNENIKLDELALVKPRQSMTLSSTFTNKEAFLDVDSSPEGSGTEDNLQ

[16] = growth suppression of PTEN-null colon cells, dose response, cell-based, HCT116 PTEN knockout (AID 1047); type: functional;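 also: HCT116 colon tumor cells with PTEN knocked out; cells exposed to compound for 60 hours before readout; potency for loss of cell viability measured by luminescence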
[17] = growth suppression of beta-catenin-knockout colon cells, dose response, cell-based, HCT116, human colon tumor (AID 1045); type: functional;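 also: HCT116 colon tumor cells with beta catenin knocked out; cells exposed to compound for 60 hours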
[18] = molecular target: T3, Mannose-6-phosphate isomerase (Homo sapiens, UniProt P34949); assay: human PMI inhibitors, high substrate, primary screen, biochemical, fluorescence intensity, high mannose 6-phosphate (AID 1220)
T3 sequence (P34949 whole entry): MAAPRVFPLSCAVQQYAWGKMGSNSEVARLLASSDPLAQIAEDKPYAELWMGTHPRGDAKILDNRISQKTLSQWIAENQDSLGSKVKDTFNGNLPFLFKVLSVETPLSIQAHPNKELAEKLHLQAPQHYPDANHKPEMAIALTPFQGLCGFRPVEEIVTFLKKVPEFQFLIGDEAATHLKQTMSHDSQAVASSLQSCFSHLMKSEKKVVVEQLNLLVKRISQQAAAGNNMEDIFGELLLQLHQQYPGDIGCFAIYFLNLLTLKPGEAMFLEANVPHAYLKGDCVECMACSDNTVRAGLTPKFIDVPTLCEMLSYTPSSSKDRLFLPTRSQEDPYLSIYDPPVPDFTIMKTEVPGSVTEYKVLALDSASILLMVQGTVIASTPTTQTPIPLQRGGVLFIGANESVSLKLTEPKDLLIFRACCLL

Vero [19] = assay: Vero cell cytotoxicity, cytotoxicity control for flavivirus capping enzyme inhibitors (AID 588742); type: functional; conditions: Chlorocebus sabaeus
Protein Tat = Protein Tat (Human immunodeficiency virus type 1 group M subtype B (isolate HXB2)(HIV-1), UniProt P04608); type: functional;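 also: tat binding to TAR RNA read out by fluorescence polarization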
Chain of Protein Tat (P04608 whole entry): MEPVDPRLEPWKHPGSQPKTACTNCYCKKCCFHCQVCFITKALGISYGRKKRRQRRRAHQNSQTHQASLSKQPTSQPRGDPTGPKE

[20] = THP-1 cell cytotoxicity, dose response, cytotoxicity control for Vif-APOBEC3G degradation inhibitor project, THP-1 cells (AID 1117359); type: functional; conditions: Human immunodeficiency virus 1, THP-1
CHO = assay: cytotoxicity in TLR9-MyD88 CHO cells, dose response, cytotoxicity control for TLR9-MyD88 binding inhibitor project, cell-based, luminescence (AID 588339); type: functional, hamster; conditions: Cricetulus griseus;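 also: CHO cells stably coexpressing TLR9 and MyD88 fusions from primary screen; compound exposure lasted 48 hours before viability readout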
Beta Lactamase = Beta Lactamase (Pseudomonas aeruginosa, UniProt Q932Y6); assay: beta-lactamase reporter inhibitor potency, dose response, artefact control for TLR9-MyD88 binding inhibitor project, BLA reporter cells, FRET fluorescence (AID 588341); type: cell-based;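 also: cell based assay in CHO-K1 cells stably expressing beta-lactamase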
Chain of Beta Lactamase (Q932Y6 whole entry): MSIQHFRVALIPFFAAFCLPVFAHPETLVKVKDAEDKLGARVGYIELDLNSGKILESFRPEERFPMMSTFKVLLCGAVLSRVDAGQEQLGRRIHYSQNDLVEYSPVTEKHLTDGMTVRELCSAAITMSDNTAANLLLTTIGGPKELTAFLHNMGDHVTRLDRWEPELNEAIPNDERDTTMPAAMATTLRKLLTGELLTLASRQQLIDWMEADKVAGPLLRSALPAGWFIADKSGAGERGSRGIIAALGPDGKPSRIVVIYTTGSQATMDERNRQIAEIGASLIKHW

Nonstructural protein 1 = Nonstructural protein 1 (Influenza A virus, UniProt Q194T2); type: functional, Influenza A virus (A/California/07/2009(H1N1))
Chain of Nonstructural protein 1 (Q194T2 whole entry): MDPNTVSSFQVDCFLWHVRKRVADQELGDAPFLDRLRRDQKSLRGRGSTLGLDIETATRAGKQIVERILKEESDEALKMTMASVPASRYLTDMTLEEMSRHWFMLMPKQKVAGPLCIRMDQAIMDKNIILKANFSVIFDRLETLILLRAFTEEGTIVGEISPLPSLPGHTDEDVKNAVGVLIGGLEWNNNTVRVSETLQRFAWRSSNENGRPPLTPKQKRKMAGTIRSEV

[21] = molecular target: Heat shock protein HSP 90-alpha (Homo sapiens, UniProt P07900); type: functional, organism-based
Vero [22] = assay: Vero E6 cell cytotoxicity, dose response, cytotoxicity control (AID 540298); type: functional; conditions: Chlorocebus sabaeus
MDCK [23] = assay: MDCK cell cytotoxicity, dose response, cytotoxicity control (AID 540296); type: functional; conditions: Canis lupus familiaris
[24] = molecular target: Delta-type opioid receptor (Homo sapiens, UniProt P41143); assay: Counterscreen for agonists of heterodimerization of the mu 1 (OPRM1) and delta 1 (OPRD1) opioid receptors: Luminescence-based cell-based high throughput dose response assay to identify agonists of OPRD1 homodimerization. [Related pubchem assays (depositor defined):AID504326, AID504355, AID504692, AID504904, AID504905]; type: functional
Chain of Delta-type opioid receptor (P41143 whole entry): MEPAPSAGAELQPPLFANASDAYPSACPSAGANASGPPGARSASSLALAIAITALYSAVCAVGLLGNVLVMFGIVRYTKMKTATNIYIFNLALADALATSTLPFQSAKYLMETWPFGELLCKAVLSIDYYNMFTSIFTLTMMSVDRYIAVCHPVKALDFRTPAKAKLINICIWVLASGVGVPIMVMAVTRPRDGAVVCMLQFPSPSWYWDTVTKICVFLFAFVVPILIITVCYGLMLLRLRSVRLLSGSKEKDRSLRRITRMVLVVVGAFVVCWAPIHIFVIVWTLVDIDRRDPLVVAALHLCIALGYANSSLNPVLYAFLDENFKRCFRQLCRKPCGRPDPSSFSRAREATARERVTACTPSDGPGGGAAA

MDCK [25] = assay: antiviral activity against H1N1 influenza, dose response, cell-based, strain KY136 (AID 540257); type: functional; conditions: Canis lupus familiaris
Mu-type opioid receptor = Mu-type opioid receptor (Homo sapiens, UniProt P35372); assay: Counterscreen for agonists of heterodimerization of the mu 1 (OPRM1) and delta 1 (OPRD1) opioid receptors: Luminescence-based cell-based high throughput dose response assay to identify agonists of OPRM1 homodimerization.; type: functional;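 also: U2OS cells expressing OPRM1 and beta-arrestin as split beta-galactosidase partners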
Chain of Mu-type opioid receptor (P35372 whole entry): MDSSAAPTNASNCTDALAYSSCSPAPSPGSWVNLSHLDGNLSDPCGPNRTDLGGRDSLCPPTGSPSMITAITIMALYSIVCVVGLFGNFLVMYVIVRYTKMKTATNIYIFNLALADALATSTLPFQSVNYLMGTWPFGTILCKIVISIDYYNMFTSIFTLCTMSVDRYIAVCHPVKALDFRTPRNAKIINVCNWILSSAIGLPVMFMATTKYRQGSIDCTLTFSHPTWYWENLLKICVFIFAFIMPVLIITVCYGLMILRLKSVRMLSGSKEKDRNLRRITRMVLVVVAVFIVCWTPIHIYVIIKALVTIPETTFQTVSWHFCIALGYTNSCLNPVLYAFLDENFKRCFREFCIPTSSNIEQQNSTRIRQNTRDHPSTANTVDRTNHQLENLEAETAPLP

[26] = molecular target: 5-hydroxytryptamine receptor 5A (Homo sapiens, UniProt P47898); assay: Counterscreen for agonists of OPRM1-OPRD1 heterodimerization: luminescence-based cell-based high throughput dose response assay to identify agonists of 5-hydroxytryptamine (serotonin) 5A receptor (HTR5A). [Related pubchem assays (depositor defined):AID504326, AID504355, AID504692, AID504904, AID504905]; type: functional
Chain of 5-hydroxytryptamine receptor 5A (P47898 whole entry): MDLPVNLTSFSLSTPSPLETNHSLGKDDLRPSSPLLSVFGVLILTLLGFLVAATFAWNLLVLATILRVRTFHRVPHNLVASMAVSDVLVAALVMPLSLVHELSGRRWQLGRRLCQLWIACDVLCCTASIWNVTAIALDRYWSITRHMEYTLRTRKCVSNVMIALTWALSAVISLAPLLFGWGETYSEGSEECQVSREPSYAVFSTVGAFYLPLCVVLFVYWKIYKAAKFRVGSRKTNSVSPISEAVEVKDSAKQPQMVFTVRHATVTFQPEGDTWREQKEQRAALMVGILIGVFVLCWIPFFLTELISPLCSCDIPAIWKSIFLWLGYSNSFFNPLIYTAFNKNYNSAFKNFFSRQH

INS1 [27] = assay: protection of INS-1E cells from cytokine death, dose response, ATP luminescence, dry powder (AID 488844); type: functional, cell-based; conditions: Rattus norvegicus
[28] = inhibitors of cytokine-induced nitrite release, dose response, cell-based, Griess absorbance, INS-1E, dry powder, set 3 (AID 488870); type: functional; conditions: Rattus norvegicus
INS1 [29] = assay: inhibitors of cytokine-induced nitrite release, dose response, cell-based, Griess absorbance, INS-1E, dry powder (AID 488866); type: functional; conditions: Rattus norvegicus
INS1 [30] = assay: inhibitors of cytokine-induced nitrite release, dose response, cell-based, Griess absorbance, INS-1E, dry powder, set 2 (AID 488868); type: functional; conditions: Rattus norvegicus
INS1 [31] = assay: protection from cytokine-induced mitochondrial depolarization, dose response, cell-based, INS-1E, JC-1 fluorescence ratio, dry powder (AID 488931); type: functional; conditions: Rattus norvegicus
[32] = molecular target: Serine/threonine-protein kinase PLK3 (Homo sapiens, UniProt Q9H4B4); type: functional
[33] = molecular target: Serine/threonine-protein kinase PLK4 (Homo sapiens, UniProt O00444); type: functional;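 also: PLK4 measured as one member of a kinome-wide kinase profiling panel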
Chain of Serine/threonine-protein kinase PLK4 (O00444 whole entry): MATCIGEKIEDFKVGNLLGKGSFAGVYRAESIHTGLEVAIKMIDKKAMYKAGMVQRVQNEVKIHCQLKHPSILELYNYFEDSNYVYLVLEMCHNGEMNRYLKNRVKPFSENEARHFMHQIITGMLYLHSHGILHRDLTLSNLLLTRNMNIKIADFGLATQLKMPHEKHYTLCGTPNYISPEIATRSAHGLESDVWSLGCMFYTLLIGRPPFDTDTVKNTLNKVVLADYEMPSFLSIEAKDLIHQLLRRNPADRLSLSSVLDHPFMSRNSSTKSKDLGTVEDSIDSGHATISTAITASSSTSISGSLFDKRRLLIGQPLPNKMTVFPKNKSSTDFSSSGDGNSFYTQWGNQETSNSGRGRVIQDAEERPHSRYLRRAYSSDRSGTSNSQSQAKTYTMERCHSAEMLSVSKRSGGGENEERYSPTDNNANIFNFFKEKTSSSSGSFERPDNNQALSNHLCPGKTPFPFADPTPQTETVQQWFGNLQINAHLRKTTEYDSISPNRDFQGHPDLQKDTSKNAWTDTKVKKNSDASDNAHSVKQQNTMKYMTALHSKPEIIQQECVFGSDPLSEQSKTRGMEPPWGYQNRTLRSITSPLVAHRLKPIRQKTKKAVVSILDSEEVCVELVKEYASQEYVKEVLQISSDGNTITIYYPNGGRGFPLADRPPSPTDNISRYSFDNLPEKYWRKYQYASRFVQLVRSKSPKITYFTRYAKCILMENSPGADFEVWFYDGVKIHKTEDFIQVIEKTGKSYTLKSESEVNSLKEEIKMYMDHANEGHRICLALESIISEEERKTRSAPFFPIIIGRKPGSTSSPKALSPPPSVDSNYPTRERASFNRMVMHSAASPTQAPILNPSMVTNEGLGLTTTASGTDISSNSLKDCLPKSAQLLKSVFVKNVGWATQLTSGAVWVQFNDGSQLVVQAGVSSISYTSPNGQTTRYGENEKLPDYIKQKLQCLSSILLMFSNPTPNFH

[34] = molecular target: Interleukin-1 receptor-associated kinase 1 (Homo sapiens, UniProt P51617); type: functional;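 also: IRAK1 tested as one member of a kinome panel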
Chain of Interleukin-1 receptor-associated kinase 1 (P51617 whole entry): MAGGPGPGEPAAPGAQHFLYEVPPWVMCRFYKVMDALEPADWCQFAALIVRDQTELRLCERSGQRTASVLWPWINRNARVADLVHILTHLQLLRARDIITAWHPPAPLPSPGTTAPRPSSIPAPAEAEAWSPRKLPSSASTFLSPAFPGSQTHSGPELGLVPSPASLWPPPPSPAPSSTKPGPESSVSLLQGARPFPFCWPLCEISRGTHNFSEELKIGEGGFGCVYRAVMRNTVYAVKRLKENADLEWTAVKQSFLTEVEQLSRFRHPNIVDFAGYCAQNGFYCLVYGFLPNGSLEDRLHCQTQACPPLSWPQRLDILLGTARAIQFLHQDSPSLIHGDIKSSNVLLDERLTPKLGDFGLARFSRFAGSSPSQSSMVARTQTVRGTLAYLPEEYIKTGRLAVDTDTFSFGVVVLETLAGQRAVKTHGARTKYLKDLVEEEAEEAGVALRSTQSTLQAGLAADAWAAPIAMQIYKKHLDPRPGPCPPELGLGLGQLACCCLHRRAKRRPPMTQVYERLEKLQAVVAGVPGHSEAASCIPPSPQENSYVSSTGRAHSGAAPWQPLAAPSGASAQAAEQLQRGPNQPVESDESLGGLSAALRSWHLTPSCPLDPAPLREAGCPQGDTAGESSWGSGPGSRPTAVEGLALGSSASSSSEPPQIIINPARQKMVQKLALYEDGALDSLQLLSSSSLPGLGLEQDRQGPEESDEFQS

With N#Cc1ccc(N2C(=O)[C@@H]3C(C(=O)c4ccc5ccccc5n4)=NN[C@@H]3C2=O)cc1 the EC50 [1] was 7.74 µM (active), the EC50 [2] was 15.1 µM (active) and the CC50 (MEF) was > 99 µM (inactive). The EC50 [3] was > 99 µM (inactive) and the EC50 [4] was 0.271 µM (active).

With O=C(Cc1ccccc1)NC1(Cc2ccc(O)cc2)CCCCC1 the EC50 [5] was 7.47 µM (active).

With O=C(COc1ccc([N+](=O)[O-])cc1)Nc1ccc(C(=O)NCc2cccnc2)cc1 the EC50 (BJ [6]) was > 150 µM (not active), the EC50 (BJ [7]) was 12.8 µM (inconclusive) and the EC50 (BJ [8]) was > 150 µM (not active). For the same compound, the EC50 [9] was > 150 µM (not active), the AC50 (Cytochrome P450 2C19) was 7.94 µM (inconclusive) and the EC50 (BJ [10]) was 2.51 µM (inconclusive). The AC50 (INS1 [11]) was < 0.195 µM (active) and the AC50 (Cytochrome P450 2C9) was 22.4 µM (inconclusive).

For COC(=O)C(C)Oc1ccc(Cc2ncc(C(F)(F)F)cc2Cl)cc1 (configuration not stated), the CC50 [12] was > 100 µM (active), the CC50 [13] was > 100 µM (active) and the CC50 [14] was > 100 µM (active).

In the case of CN(Cc1cccc(F)c1)C(=O)c1ccccc1Sc1ccccc1C#N, the EC50 [15] is reported as 15 µM (active).

With CCOc1cccc(CNc2ccc(O)cc2)c1OCc1ccc(Cl)cc1 the EC50 [16] was 25.2 µM (active), the EC50 [17] was 29.4 µM (active) and the IC50 [18] was > 50 µM (not active). The CC50 (Vero [19]) was > 40 µM (active), the IC50 (Protein Tat) was 86 µM (inconclusive) and the CC50 [20] was 37 µM (active).

With Nc1ccc2c(c1)Cc1cc([N+](=O)[O-])ccc1-2 the IC50 (CHO) was > 49.8 µM (inactive) and the IC50 (Beta Lactamase) was 6.37 µM (active).

In the case of O=C(C=P(c1ccccc1)(c1ccccc1)c1ccccc1)c1ccccc1-c1ccccc1C(=O)C=P(c1ccccc1)(c1ccccc1)c1ccccc1, the IC50 (Nonstructural protein 1) is reported as 58.5 µM (active), the AC50 [21] is reported as 8.19 µM (active) and the CC50 (Vero [22]) is reported as 3.43 µM (active). The CC50 (MDCK [23]) was 6.63 µM (active), the EC50 [24] was > 92.5 µM (inactive) and the IC50 (MDCK [25]) was 2.54 µM (active). For the same compound, the EC50 (Mu-type opioid receptor) was > 92.5 µM (inactive) and the EC50 [26] was > 92.5 µM (inactive).

With COc1ccc(S(=O)(=O)N(C)C[C@@H]2Oc3c(NC(=O)Nc4cccc5ccccc45)cccc3C(=O)N([C@@H](C)CO)C[C@H]2C)cc1Cl the AC50 (INS1 [27]) was 27.3 µM (active), the AC50 [28] was 52.8 µM (active) and the AC50 (INS1 [29]) was 46.3 µM (active). For the same compound, the AC50 (INS1 [30]) was 39.5 µM (active) and the AC50 (INS1 [31]) was 147 µM (active).

With CCCn1c(=O)c2[nH]c(-c3cnn(Cc4cccc(C(F)(F)F)c4)c3)nc2n(CC)c1=O [GS 6201] the Ki [32] was 7.94 µM (active), the Ki [33] was 3.98 µM (active) and the Ki [34] was 7.94 µM (active).
